Assay results taken from US8552064B2, “Suramin and derivatives thereof as topical microbicide and contraceptive” (Eastern Virginia Medical School, priority 2005, dated 2013).
Values after ≈ are worked out from the molar mass of the structure shown.

Legend:
HIV-1 clinical isolates = experiment: Clinical isolates in PBMC assay; format: cell-based
Description: Peripheral blood mononuclear cells (PBMCs) were obtained from normal hepatitis and HIV-1 negative donors by ficoll hypaque gradient separation. Briefly, anti-coagulated blood is diluted 1:1 with Dulbecco's phosphate buffered saline without Ca^++ and Mg^++ (PBS) and layered over 14 mL of Lymphocyte separation media in a 50 ml centrifuge tube. Tubes were then centrifuged for 30 minutes at 600×g. Banded PBMCs were gently aspirated from the resulting interface and subsequently washed 2× with PBS by low speed centrifugation. The mononuclear cells were counted, viability was determined by Trypan Blue dye exclusion and the cells were resuspended in RPMI 1640 medium supplemented with 15% FBS (heat inactivated), 2 mM L-glutamine, 100 U/mL penicillin, 100 μg/mL streptomycin, and 10 μg/mL gentamycin with 20 U/mL recombinant IL-2 (R&D Systems, Minneapolis, Minn.). […]
Human peripheral blood mononuclear cells from a minimum of two donors, that have been stimulated with PHS- and IL-2, were counted and their viability was determined by Trypan Blue dye exclusion and mixed in equal rations. Pooled donors were used to minimize the variability observed between individual donors, which results from quantitative and qualitative differences in HIV infection, and overall response to the PHA and IL-2 of primary lymphocyte populations. […]

[1] = system: sperm penetration in cervical mucus; experiment: Modified One End Test (MOET), sperm penetration in bovine cervical mucus; format: cell-based
Description: Bovine cervical mucus was obtained from Humagen (Charlottesville, Va.) in the form of prepackaged flat capillary tubes (Penetrak®), kept frozen and thawed right prior to the experiment. The Modified One End Test (MOET) [(described in Doncel G. F., in “Barrier Contraceptives”, Wiley-Liss, Mauck C. K. et al. eds., pp. 147-162 (1994)] was used to determine the effect of compounds, such as suramin sodium described herein, on sperm penetration in cervical mucus. Each of the test compositions containing the compound to be tested were diluted in a saline solution, i.e., at 9 grams of NaCl per liter of water. Tubes of cervical mucus were broken open. The open end was placed in a container containing the test compound in saline. The test compound was allowed to diffuse for 30 minutes through the tube. A semen sample, obtained from normal healthy donors, was then diluted with a buffer solution to 60 million motile sperm per milliliter and mixed with the test compound sample (i.e., suramin sodium). The tube containing the test compound sample was then re-inserted into the container containing the mixed solution and stored in an incubator at 37° C. in an atmosphere of 5 percent carbon dioxide in air for 60 minutes. The container and tube were then removed from the incubator and the tube was visually analyzed under a microscope for the migration of motile vanguard sperm through the tube. The results are expressed as percentage of migration as compared to control samples. In the control samples, the tubes were incubated with saline containing no compound. […]

Cc1ccc(C(=O)Nc2ccc(S(=O)(=O)O)c3cc(S(=O)(=O)O)cc(S(=O)(=O)O)c23)cc1NC(=O)c1cccc(NC(=O)Nc2cccc(C(=O)Nc3cc(C(=O)Nc4ccc(S(=O)(=O)O)c5cc(S(=O)(=O)O)cc(S(=O)(=O)O)c45)ccc3C)c2)c1 [Suramin, 8,8′-(carbonylbis(imino-3,1-phenylenecarbonylimino(4-methyl-3,1-phenylene)carbonylimino))bis-1,3,5-naphthalene trisulfonic acid]
Potency, HIV-1 Clin Isolates (HIV-1 clinical isolates): High | IC50 (HIV-1 clinical isolates; Human immunodeficiency virus 1, PBMC, read-out: IC50 Clin Isolates): 14.6 µg/mL (≈ 11.3 µM) | MOET % CTL ([1]; 6.25 mg/ml): 96.1 ± 0.9 % CTL | MOET % CTL ([1]; 12.5 mg/ml): 94.9 ± 2.2 % CTL | sperm impediment in MOET ([1]; 25 mg/mL or below): No significant sperm impediment | MOET % CTL ([1]; 25 mg/ml): 95.9 ± 1.4 % CTL | inhibition of sperm penetration in MOET ([1]; 50 mg/mL (5%)): only minor inhibition of sperm penetration | MOET % CTL ([1]; 50 mg/ml): 72.3 ± 7.1 % CTL | degree of inhibition of sperm penetration ([1]; KY, suramin sodium in KY and suramin sodium alone at the same concentration): ~4%
